Columns and labels:
Assay in all cases: relative viability (nuclei count vs DMSO), 5 days (fraction); higher = more cells survive
QS11 + Olaparib = compound: C1CC2=C(C1)C=C(C=C2)OC3=NC(=C4C(=N3)N(C=N4)CC5=CC=C(C=C5)C6=CC=CC=C6)N[C@@H](CC7=CC=CC=C7)CO [QS11] + O=C(c1cc(Cc2n[nH]c(=O)c3ccccc23)ccc1F)N1CCN(C(=O)C2CC2)CC1 [Olaparib] (partner 8 µM)
Outline: (§1)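 For relative viability, nuclei counts in treated wells were divided by those in vehicle wells. Lung cancer cell lines had been pin-tool dosed in 1536-well plates the day after seeding and cultured for 5 days, then fixed and stained in one step (final 0.05% Triton X-100, 1% formaldehyde, 1 ug/ml Hoechst) and imaged at 4×. Doses were one drug alone or a fixed anchor-drug dose plus five library-drug doses (not always all listed) in √10 steps, and values are duplicate-plate medians.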

AZ628 + Phenformin = compound: CC1=C(C=C(C=C1)NC(=O)C2=CC(=CC=C2)C(C)(C)C#N)NC3=CC4=C(C=C3)N=CN(C4=O)C [AZ628] + N=C(N)NC(=N)NCCc1ccccc1 [Phenformin] (partner 250 µM)
Outline: as §1

AZ628 + Pemetrexed = compound: CC1=C(C=C(C=C1)NC(=O)C2=CC(=CC=C2)C(C)(C)C#N)NC3=CC4=C(C=C3)N=CN(C4=O)C [AZ628] + Nc1nc2[nH]cc(CCc3ccc(C(=O)N[C@@H](CCC(=O)O)C(=O)O)cc3)c2c(=O)[nH]1 [Pemetrexed] (partner 0.2 µM)
Outline: as §1

AZ628 + Olaparib = compound: CC1=C(C=C(C=C1)NC(=O)C2=CC(=CC=C2)C(C)(C)C#N)NC3=CC4=C(C=C3)N=CN(C4=O)C [AZ628] + O=C(c1cc(Cc2n[nH]c(=O)c3ccccc23)ccc1F)N1CCN(C(=O)C2CC2)CC1 [Olaparib] (partner 8 µM)
Outline: as §1

Cell Line | relative viability (QS11 + Olaparib; first compound 0.08 µM) | relative viability (QS11 + Olaparib; first compound 0.253 µM) | relative viability (QS11 + Olaparib; first compound 0.8 µM) | relative viability (QS11 + Olaparib; first compound 2.53 µM) | relative viability (QS11 + Olaparib; first compound 8 µM) | relative viability (AZ628 + Phenformin; first compound 0.08 µM) | relative viability (AZ628 + Phenformin; first compound 0.253 µM) | relative viability (AZ628 + Phenformin; first compound 0.8 µM) | relative viability (AZ628 + Phenformin; first compound 2.53 µM) | relative viability (AZ628 + Phenformin; first compound 8 µM) | relative viability (AZ628 + Pemetrexed; first compound 0.08 µM) | relative viability (AZ628 + Pemetrexed; first compound 0.253 µM) | relative viability (AZ628 + Pemetrexed; first compound 0.8 µM) | relative viability (AZ628 + Pemetrexed; first compound 2.53 µM) | relative viability (AZ628 + Pemetrexed; first compound 8 µM) | relative viability (AZ628 + Olaparib; first compound 0.08 µM) | relative viability (AZ628 + Olaparib; first compound 0.253 µM) | relative viability (AZ628 + Olaparib; first compound 0.8 µM) | relative viability (AZ628 + Olaparib; first compound 2.53 µM) | relative viability (AZ628 + Olaparib; first compound 8 µM)
NCI-H358 | 0.635 | 0.62 | 0.566 | 0.633 | 0.618 | 0.32 | 0.208 | 0.216 | 0.222 | 0.216 | 0.172 | 0.159 | 0.152 | 0.142 | 0.142 | 0.567 | 0.457 | 0.361 | 0.417 | 0.295
NCI-H441 | 0.511 | 0.54 | 0.518 | 0.364 | 0.463 | 0.991 | 0.71 | 0.822 | 0.712 | 0.469 | 0.279 | 0.252 | 0.235 | 0.263 | 0.26 | 0.547 | 0.532 | 0.738 | 0.699 | 0.542
NCI-H460 | 0.422 | 0.435 | 0.36 | 0.416 | 0.277 | 0.52 | 0.511 | 0.452 | 0.404 | 0.189 | 0.0707 | 0.055 | 0.0564 | 0.0595 | 0.0641 | 0.543 | 0.397 | 0.342 | 0.414 | 0.371
NCI-H520 | 0.347 | 0.304 | 0.394 | 0.313 | 0.301 | 0.583 | 0.452 | 0.64 | 0.476 | 0.398 | 0.669 | 0.596 | 0.67 | 0.707 | 0.286 | 0.358 | 0.32 | 0.325 | 0.396 | 0.23
NCI-H522 | 0.603 | 0.755 | 0.665 | 0.588 | 0.772 | 0.628 | 0.516 | 0.617 | 0.542 | 0.663 | 0.903 | 1.02 | 0.874 | 0.93 | 0.645 | 0.643 | 0.691 | 0.602 | 0.689 | 0.522
NCI-H596 | 0.724 | 0.563 | 0.634 | 0.606 | 0.61 | 0.722 | 0.85 | 0.969 | 0.781 | 0.808 | 0.496 | 0.485 | 0.521 | 0.525 | 0.521 | 0.76 | 0.793 | 0.703 | 0.799 | 0.651
NCI-H647 | 0.676 | 0.523 | 0.541 | 0.604 | 0.664 | 0.695 | 0.525 | 0.467 | 0.323 | 0.405 | 0.201 | 0.17 | 0.179 | 0.161 | 0.151 | 0.848 | 0.616 | 0.495 | 0.551 | 0.573
NCI-H650 | 0.316 | 0.364 | 0.375 | 0.316 | 0.418 | 0.536 | 0.471 | 0.552 | 0.509 | 0.498 | 0.947 | 1.15 | 1.08 | 1.18 | 1.11 | 0.43 | 0.462 | 0.482 | 0.512 | 0.627
NCI-H661 | 0.708 | 0.791 | 0.637 | 0.745 | 0.71 | 0.283 | 0.266 | 0.278 | 0.292 | 0.275 | 0.95 | 0.979 | 0.867 | 0.848 | 0.822 | 0.748 | 0.702 | 0.699 | 0.727 | 0.644
NCI-H838 | 0.873 | 0.743 | 0.582 | 0.718 | 0.709 | 0.666 | 0.551 | 0.502 | 0.493 | 0.474 | 0.261 | 0.23 | 0.243 | 0.242 | 0.225 | 0.765 | 0.821 | 0.713 | 0.727 | 0.623
NCI-H1355 | 0.624 | 0.732 | 0.693 | 0.678 | 0.75 | 0.502 | 0.444 | 0.431 | 0.411 | 0.39 | 1.06 | 1.02 | 0.843 | 0.996 | 0.716 | 0.73 | 0.784 | 0.684 | 0.745 | 0.574
NCI-H1395 | 0.464 | 0.463 | 0.446 | 0.468 | 0.472 | 0.478 | 0.39 | 0.423 | 0.436 | 0.422 | 0.939 | 0.789 | 0.806 | 0.637 | 0.712 | 0.478 | 0.458 | 0.443 | 0.461 | 0.447
NCI-H1437 | 0.661 | 0.635 | 0.673 | 0.625 | 0.541 | 0.369 | 0.266 | 0.262 | 0.331 | 0.318 | 0.332 | 0.293 | 0.292 | 0.296 | 0.294 | 0.584 | 0.605 | 0.767 | 0.597 | 0.54
NCI-H1650 | 0.825 | 0.816 | 0.719 | 0.686 | 0.898 | 0.537 | 0.403 | 0.33 | 0.333 | 0.335 | 0.403 | 0.386 | 0.419 | 0.431 | 0.38 | 0.839 | 0.866 | 0.847 | 0.766 | 0.909
NCI-H1651 | 0.168 | 0.202 | 0.171 | 0.195 | 0.162 | 0.396 | 0.316 | 0.334 | 0.312 | 0.36 | 0.632 | 0.522 | 0.563 | 0.711 | 0.554 | 0.171 | 0.186 | 0.172 | 0.184 | 0.191
NCI-H1666 | 0.78 | 0.75 | 0.697 | 0.693 | 0.516 | 0.584 | 0.582 | 0.543 | 0.518 | 0.514 | 0.788 | 0.79 | 0.766 | 0.788 | 0.715 | 0.733 | 0.745 | 0.671 | 0.739 | 0.782
NCI-H1734 | 0.625 | 0.649 | 0.608 | 0.587 | 0.507 | 0.383 | 0.346 | 0.282 | 0.327 | 0.247 | 0.375 | 0.423 | 0.397 | 0.391 | 0.34 | 0.684 | 0.584 | 0.516 | 0.6 | 0.382
NCI-H1755 | 0.856 | 0.876 | 0.665 | 0.767 | 0.648 | 0.614 | 0.626 | 0.585 | 0.589 | 0.46 | 0.421 | 0.434 | 0.403 | 0.579 | 0.353 | 0.917 | 0.869 | 0.86 | 0.832 | 0.845
NCI-H1792 |  | 0.442 | 0.459 | 0.519 | 0.394 | 0.309 | 0.258 | 0.225 | 0.158 | 0.115 | 1 | 0.677 | 0.457 | 0.583 | 0.368 | 0.508 | 0.332 | 0.382 | 0.293 | 0.26
NCI-H1793 | 0.979 | 0.837 | 0.827 | 0.847 | 1.06 | 0.433 | 0.25 | 0.333 | 0.314 | 0.302 | 1.16 | 0.617 | 0.971 | 0.757 | 0.522 | 0.971 | 0.805 | 0.717 | 0.819 | 0.445
NCI-H1915 | 0.227 | 0.25 |  | 0.259 | 0.275 | 0.404 | 0.388 | 0.374 | 0.351 | 0.233 | 0.518 | 0.506 | 0.455 | 0.359 | 0.242 | 0.256 | 0.229 | 0.232 | 0.26 | 0.168
NCI-H1944 | 0.395 | 0.482 |  | 0.397 | 0.394 | 0.188 | 0.181 | 0.184 | 0.177 | 0.187 | 0.624 | 0.576 | 0.511 | 0.52 | 0.394 | 0.416 | 0.42 | 0.411 | 0.329 | 0.365
NCI-H1975 | 0.814 | 0.891 | 0.814 | 1.07 | 0.688 | 0.421 | 0.388 | 0.403 | 0.384 | 0.215 | 0.333 | 0.257 | 0.27 | 0.287 | 0.259 | 0.613 | 0.674 | 0.616 | 0.749 | 0.392
NCI-H1993 | 1.06 | 1.01 | 1.22 | 1.35 | 1.05 | 0.46 | 0.562 | 0.545 | 0.523 | 0.537 | 0.631 | 0.598 | 0.47 | 0.488 | 0.461 | 1.18 | 1.19 | 1.05 | 0.933 | 0.773
NCI-H2009 | 0.596 | 0.816 | 0.679 | 0.613 | 0.49 | 0.447 | 0.395 | 0.283 | 0.346 | 0.273 | 1.1 | 1.09 | 1.05 | 1 | 0.464 | 0.711 | 0.778 | 0.862 | 0.789 | 0.461
NCI-H2023 | 0.414 | 0.556 | 0.398 | 0.514 | 0.439 | 0.387 | 0.392 | 0.368 | 0.381 | 0.293 | 0.272 | 0.208 | 0.193 | 0.201 | 0.125 | 0.452 | 0.427 | 0.522 | 0.508 | 0.433

Reference: the supplement of paper PMC10307832
